2 molecules from ChEMBL document CHEMBL1128218, “New alpha-thiol dipeptide dual inhibitors of angiotensin-I converting enzyme and neutral endopeptidase EC 3.4.24.11” (J Med Chem, 1995) can be followed below.

The target in the assay is T1, Angiotensin-converting enzyme (Rattus norvegicus) (UniProt P47820).
T1 sequence (whole entry): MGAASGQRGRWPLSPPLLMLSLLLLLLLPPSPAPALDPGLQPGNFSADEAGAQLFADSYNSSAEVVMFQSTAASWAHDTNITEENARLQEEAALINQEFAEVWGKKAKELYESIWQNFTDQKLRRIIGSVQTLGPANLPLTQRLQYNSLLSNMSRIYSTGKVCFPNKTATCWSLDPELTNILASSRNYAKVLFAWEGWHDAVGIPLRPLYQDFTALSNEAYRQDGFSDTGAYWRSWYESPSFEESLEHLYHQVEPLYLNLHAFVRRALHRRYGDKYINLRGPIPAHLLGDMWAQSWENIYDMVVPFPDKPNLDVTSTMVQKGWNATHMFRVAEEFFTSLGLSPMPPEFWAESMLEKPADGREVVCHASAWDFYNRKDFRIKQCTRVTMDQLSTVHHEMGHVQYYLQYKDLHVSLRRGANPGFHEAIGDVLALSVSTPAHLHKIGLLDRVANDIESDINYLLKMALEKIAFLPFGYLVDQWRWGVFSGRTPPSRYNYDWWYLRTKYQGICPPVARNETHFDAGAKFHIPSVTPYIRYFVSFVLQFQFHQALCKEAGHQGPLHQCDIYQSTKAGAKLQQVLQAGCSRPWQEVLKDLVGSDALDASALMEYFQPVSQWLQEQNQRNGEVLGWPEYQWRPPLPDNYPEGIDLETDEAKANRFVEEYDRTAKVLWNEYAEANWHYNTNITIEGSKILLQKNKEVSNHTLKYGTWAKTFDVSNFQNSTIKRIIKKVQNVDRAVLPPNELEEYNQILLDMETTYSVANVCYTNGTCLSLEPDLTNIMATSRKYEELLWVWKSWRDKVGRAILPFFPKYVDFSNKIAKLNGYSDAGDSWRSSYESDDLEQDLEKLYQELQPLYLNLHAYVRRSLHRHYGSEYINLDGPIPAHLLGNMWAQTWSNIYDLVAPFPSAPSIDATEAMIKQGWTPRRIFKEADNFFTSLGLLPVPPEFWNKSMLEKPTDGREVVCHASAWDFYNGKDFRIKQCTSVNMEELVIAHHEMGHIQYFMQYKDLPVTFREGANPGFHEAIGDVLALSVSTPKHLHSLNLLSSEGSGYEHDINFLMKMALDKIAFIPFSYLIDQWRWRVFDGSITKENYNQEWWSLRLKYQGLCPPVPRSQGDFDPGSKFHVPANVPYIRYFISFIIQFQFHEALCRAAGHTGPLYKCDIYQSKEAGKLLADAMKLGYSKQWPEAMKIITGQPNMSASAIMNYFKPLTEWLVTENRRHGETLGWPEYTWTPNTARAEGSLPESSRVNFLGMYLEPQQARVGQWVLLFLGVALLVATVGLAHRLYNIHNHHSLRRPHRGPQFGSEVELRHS
In words: Evaluation of plasma inhibition of Angiotensin I converting enzyme activity in conscious rat 2 hour after oral administration at a dose of 10 mg/kg. Format: functional, organism-based. Further details: dose 10 mg/kg.

In turn, `CC(C)[C@H](S)C(=O)NC1(C(=O)N[C@@H](Cc2c[nH]c3ccccc23)C(=O)O)CCCC1` came in with an inhibition of 50%.

`CC(C)[C@H](S)C(=O)NC1(C(=O)N[C@@H](Cc2ccc(O)cc2)C(=O)O)CCCC1` displayed an inhibition of 59%.

For orientation: inhibition means the drop in the measured response relative to a control, in per cent. A high value points to strong suppression.
